Measurements as given in patent US12440492B2, “Pharmaceutical compositions comprising AKT protein kinase inhibitors” (Genentech, Inc., priority 2016, dated 2025).
Structures can show the parent of a compound that is named as a salt.

Tests used:
Assay type in all cases: physicochemical
[1] = Bulk density, tapped density and Carr index; conditions: spray dried amorphous ipatasertib monohydrochloride powder; monohydrochloride
[2] = Particle size distribution (d10, d50, d90) by laser diffraction; conditions: spray dried amorphous ipatasertib monohydrochloride powder
Excerpt: FIG. 6 illustrates particle size distribution of the material of Example 6C (Batch HQ00003) spray dried with two-feed nozzle as obtained by laser diffraction A bimodal particle size distribution is obvious. FIG. 9 illustrates particle size distribution of spray dried material with rotary wheel nozzle, i.e. of the material of batch BS1506SA03 of Example 13 (Table 20) obtained using a Malvern Mastersizer 2000 equipped with Hydro 2000S wet sample dispersion unit (Malvern Instruments Ltd, Malvern/UK). A monomodal particle size distribution is obvious. The terms “d50 value” (sometimes also referred to as “d(0.5)-value”) and “mass-median diameter” (or MMD) can be used interchangeably and denote the average particle size by mass, i.e. the average equivalent diameter of a particle, which is defined as the diameter where 50% (w) of the particles of the ensemble have a larger equivalent spherical diameter, and the other 50% (w) have a smaller equivalent spherical diameter. In analogy, the term “d10-value” denotes the particle diameter wherein 10% (w) of the particles of the ensemble have a smaller equivalent spherical diameter. In analogy, the term “d90-value” denotes the particle diameter wherein 90% (w) of the particles of the ensemble have a smaller equivalent spherical diameter.

[3] = Solid state by X-ray powder diffraction; conditions: * indicates absence of crystalline API; monohydrochloride
Excerpt: Bragg's law describes the diffraction of crystalline material with the equation “2d·sin(theta)=n·lambda”, wherein “d” denotes perpendicular distance (in Angstroms) between pairs of adjacent planes in a crystal (“d-spacing”), “theta” denotes the Bragg angle, “lambda” denotes the wavelength and “n” is an integer. When Bragg's law is fulfilled, the reflected beams are in phase and interfere constructively so that Bragg diffraction peaks are observed in the X-ray diffraction pattern. At angles of incidence other than the Bragg angle, reflected beams are out of phase and destructive interference or cancellation occurs. […] The XRPD pattern of an amorphous material is further characterized by one or more amorphous halos.
The term “XRPD” denotes the analytical method of X-Ray Powder Diffraction. The repeatability of the angular values is in the range of 2Theta±0.2°, more particularly in the range of 2Theta±0.1°. The term “approximately” given in combination with an angular value denotes the variance which is in the range of 2Theta±0.2°, particularly in the range of 2Theta±0.1°. The relative XRPD peak intensity is dependent upon many factors such as structure factor, temperature factor, crystallinity, polarization factor, multiplicity, and Lorentz factor. Relative intensities may vary considerably from one measurement to another due to preferred orientation effects. According to USP 941 (US Pharmacopoeia, 37th Edition, General Chapter 941), relative intensities between two samples of the same material may vary considerably due to “preferred orientation” effects. Anisotropic materials adopting preferred orientation will lead to anisotropic distribution of properties such as modulus, strength, ductility, toughness, electrical conductivity, thermal expansion, etc., as described e.g. in Kocks U. F. et al. (Texture and Anisotropy: Preferred Orientations in Polycrystals and Their Effect on Materials Properties, Cambridge University Press, 2000). In XRPD but also Raman spectroscopy, preferred orientations cause a change in the intensity distribution. Preferred orientation effects are particularly pronounced with crystalline APIs of relatively large particle size.

| Bulk density [1] | Tapped density [1] | Particle size d10 [2] | Particle size d50 [2] | Particle size d90 [2] | Solid state / Polymorphy (X-Ray, XRPD) [3] | Structure (SMILES) |
| --- | --- | --- | --- | --- | --- | --- |
| 0.47 gcm^−3 | 0.61 gcm^−3 | 12 μm | 36 μm | 72 μm | Amorphous* | CC(C)NC[C@@H](C(=O)N1CCN(c2ncnc3c2[C@H](C)C[C@H]3O)CC1)c1ccc(Cl)cc1 [Composition 130810454, ipatasertib monohydrochloride] |
| 0.45 gcm^−3 | 0.59 gcm^−3 | 10 μm | 28 μm | 56 μm | amorphous* | CC(C)NC[C@@H](C(=O)N1CCN(c2ncnc3c2[C@H](C)C[C@H]3O)CC1)c1ccc(Cl)cc1 [Composition 140210413, ipatasertib monohydrochloride] |
| 0.42 gcm^−3 | 0.60 gcm^−3 | 14 μm | 40 μm | 79 μm | Amorphous* | CC(C)NC[C@@H](C(=O)N1CCN(c2ncnc3c2[C@H](C)C[C@H]3O)CC1)c1ccc(Cl)cc1 [Composition 130710450, ipatasertib monohydrochloride] |
| 0.30 gcm^−3 | 0.45 gcm^−3 | 6.6 μm | 20 μm | 58 μm | Amorphous* | CC(C)NC[C@@H](C(=O)N1CCN(c2ncnc3c2[C@H](C)C[C@H]3O)CC1)c1ccc(Cl)cc1 [Composition 130810453, ipatasertib monohydrochloride] |
| 0.37 gcm^−3 | 0.51 gcm^−3 | 9.2 μm | 27 μm | 58 μm | amorphous* | CC(C)NC[C@@H](C(=O)N1CCN(c2ncnc3c2[C@H](C)C[C@H]3O)CC1)c1ccc(Cl)cc1 [Composition 140110411, ipatasertib monohydrochloride] |
| 0.38 gcm^−3 | 0.55 gcm^−3 | 10 μm | 28 μm | 56 μm | amorph.* | CC(C)NC[C@@H](C(=O)N1CCN(c2ncnc3c2[C@H](C)C[C@H]3O)CC1)c1ccc(Cl)cc1 [Composition 141210421, ipatasertib monohydrochloride] |
| 0.29 gcm^−3 | 0.43 gcm^−3 | 7.1 μm | 16 μm | 28 μm | amorphous* | CC(C)NC[C@@H](C(=O)N1CCN(c2ncnc3c2[C@H](C)C[C@H]3O)CC1)c1ccc(Cl)cc1 [Composition 140110407, ipatasertib monohydrochloride] |
| 0.37 gcm^−3 | 0.54 gcm^−3 | 9.6 μm | 27 μm | 54 μm | amorph.* | CC(C)NC[C@@H](C(=O)N1CCN(c2ncnc3c2[C@H](C)C[C@H]3O)CC1)c1ccc(Cl)cc1 [Composition 141210422, ipatasertib monohydrochloride] |
| 0.28 gcm^−3 | 0.40 gcm^−3 | 9.3 μm | 26 μm | 57 μm | amorphous* | CC(C)NC[C@@H](C(=O)N1CCN(c2ncnc3c2[C@H](C)C[C@H]3O)CC1)c1ccc(Cl)cc1 [Composition 140110405, ipatasertib monohydrochloride] |
| 0.18 gcm^−3 | 0.30 gcm^−3 | 8.1 μm | 23 μm | 50 μm | amorphous* | CC(C)NC[C@@H](C(=O)N1CCN(c2ncnc3c2[C@H](C)C[C@H]3O)CC1)c1ccc(Cl)cc1 [Composition 140110410, ipatasertib monohydrochloride] |
| 0.37 gcm^−3 | 0.52 gcm^−3 | 9.4 μm | 27 μm | 61 μm | amorphous* | CC(C)NC[C@@H](C(=O)N1CCN(c2ncnc3c2[C@H](C)C[C@H]3O)CC1)c1ccc(Cl)cc1 [Composition 140110403, ipatasertib monohydrochloride] |
| 0.49 gcm^−3 | 0.63 gcm^−3 | 12.5 μm | 47 μm | 108 μm | amorphous* | CC(C)NC[C@@H](C(=O)N1CCN(c2ncnc3c2[C@H](C)C[C@H]3O)CC1)c1ccc(Cl)cc1 [Composition 140110404, ipatasertib monohydrochloride] |
| 0.45 gcm^−3 | 0.60 gcm^−3 | 7 μm | 20 μm | 46 μm | amorphous* | CC(C)NC[C@@H](C(=O)N1CCN(c2ncnc3c2[C@H](C)C[C@H]3O)CC1)c1ccc(Cl)cc1 [Composition 140110402, ipatasertib monohydrochloride] |
| 0.39 gcm^−3 | 0.55 gcm^−3 | 10 μm | 28 μm | 56 μm | amorph.* | CC(C)NC[C@@H](C(=O)N1CCN(c2ncnc3c2[C@H](C)C[C@H]3O)CC1)c1ccc(Cl)cc1 [Composition 141210423, ipatasertib monohydrochloride] |
| 0.39 gcm^−3 | 0.54 gcm^−3 | 11 μm | 39 μm | 80 μm | amorph.* | CC(C)NC[C@@H](C(=O)N1CCN(c2ncnc3c2[C@H](C)C[C@H]3O)CC1)c1ccc(Cl)cc1 [Composition 141210425, ipatasertib monohydrochloride] |
| 0.48 gcm^−3 | 0.61 gcm^−3 | 17 μm | 45 μm | 88 μm | Amorphous* | CC(C)NC[C@@H](C(=O)N1CCN(c2ncnc3c2[C@H](C)C[C@H]3O)CC1)c1ccc(Cl)cc1 [Composition 130710451, ipatasertib monohydrochloride] |
| 0.27 gcm^−3 | 0.39 gcm^−3 | 11.3 μm | 35 μm | 79 μm | amorphous* | CC(C)NC[C@@H](C(=O)N1CCN(c2ncnc3c2[C@H](C)C[C@H]3O)CC1)c1ccc(Cl)cc1 [Composition 140110409, ipatasertib monohydrochloride] |
| 0.48 gcm^−3 | 0.57 gcm^−3 | 18 μm | 53 μm | 109 μm | amorphous* | CC(C)NC[C@@H](C(=O)N1CCN(c2ncnc3c2[C@H](C)C[C@H]3O)CC1)c1ccc(Cl)cc1 [Composition 140210414, ipatasertib monohydrochloride] |
| 0.47 gcm^−3 | 0.60 gcm^−3 | 13 μm | 46 μm | 94 μm | amorphous* | CC(C)NC[C@@H](C(=O)N1CCN(c2ncnc3c2[C@H](C)C[C@H]3O)CC1)c1ccc(Cl)cc1 [Composition 140210412, ipatasertib monohydrochloride] |
